Experimental findings from patent EP1212309B1, “CASPASE INHIBITOR” (LG Chem Investment, Ltd., priority 1999, dated 2001) are described below.

The test system of one series is Jurkat T cell. In words: MTT assay of cell death induced by Anti-FAS antibody CH11. Type of series: cell-based. The settings on record: Jurkat T cell treated with Anti-FAS antibody CH11, MTT, read-out: ED50 FAS Induced cell death.
The target in a further series is T1, caspase-1 (Homo sapiens, UniProt P29466).
T1 construct: made in house
T1 sequence (P29466 120-297 limits assumed): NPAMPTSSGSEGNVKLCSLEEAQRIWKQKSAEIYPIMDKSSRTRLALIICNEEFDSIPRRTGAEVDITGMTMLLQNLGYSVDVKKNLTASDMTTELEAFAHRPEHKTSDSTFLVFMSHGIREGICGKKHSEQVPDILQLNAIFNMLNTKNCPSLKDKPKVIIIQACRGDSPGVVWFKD
T1 sequence (P29466 317-404 limits assumed): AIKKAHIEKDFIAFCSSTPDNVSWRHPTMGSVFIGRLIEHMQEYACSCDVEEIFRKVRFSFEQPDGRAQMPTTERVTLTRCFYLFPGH
The series is described as follows: Screening on caspases inhibiting activity (recombinant enzyme, fluorogenic AMC substrate). Type of series: biochemical. Conditions: for kinact/KI / Kobs/[I] for caspase-1: Irreversible Inhibitors; for kinact/KI: read-out: Kobs/[I] for caspase-1; for Ki: Reversible Inhibitor. As for the experimental part: (§1) In the present experiment, recombinant caspases were purified from a transformed bacterium after human caspase genes were cloned into the expression vector pET, and then used in the experiment (Thornberry, N.A. et .al. Nature, 1992, 356, 768. Thombeny, N.A. Methods in Enzymology, 1994, 615.).
(§2) Enzymatic activity was measured by a known procedure (Walker N.P.C. et al., Cell 1994, 78, 343). Briefly, 10 ng of recombinant protein was mixed with 50 mM Tris(pH 7.0), 1mM DTT, 0.5 mM EDTA, 10% Glycerol buffer containing 1∼100 µM of enzyme substrate, Ac-YVAD-AMC or Ac-DEVD-AMC and then the changes by isolated AMC at 37°C were recorded. The inhibitory activity for caspases was calculated from the early enzyme reaction rate by measuring the changes with fluorescence excited at […] and emitted at 460 nm (Range; Ki<100nM).

The target in a further series is T2, caspase-3 (Homo sapiens, UniProt P42574).
T2 construct: made in house
T2 sequence (P42574 29-175 limits assumed): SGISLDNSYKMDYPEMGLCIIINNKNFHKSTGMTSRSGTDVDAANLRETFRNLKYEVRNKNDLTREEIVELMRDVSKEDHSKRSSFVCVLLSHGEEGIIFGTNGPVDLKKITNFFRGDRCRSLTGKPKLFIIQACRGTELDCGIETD
T2 sequence (P42574 176-277 limits assumed): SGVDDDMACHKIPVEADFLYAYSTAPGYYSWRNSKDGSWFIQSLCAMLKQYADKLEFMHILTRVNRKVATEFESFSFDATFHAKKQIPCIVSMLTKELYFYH
Described as above. Format: biochemical. Conditions: Irreversible Inhibitors; for kinact/KI: read-out: Kobs/[I] for caspase-3. On the procedure: as §1, §2

The next series deals with WI38 cells. The series is described as follows: Protection from IFNγ and anti-Fas antibody-induced apoptosis (XTT). Conditions: 100% when Fas antibody was not treated; for viability ratio: WI38 cells. Type of series: cell-based, human. As for the experimental part:
WI38 cells (human embryonal lung fibroblast) were grown in a medium containing DMEM-10% FBS within 10cm diameter dishes until reaching at confluency. The cells were seeded into a 24-well plate at day 1 and incubated overnight while the volume of medium was maintained to 400µℓ. […] At day 3, each 100 µℓ of test compound was added to the cells after diluting the 10mM stock compound in DMSO to final concentrations of 50, 10, 2, and 0.4 µ M, respectively. The cells were incubated for 2 hrs in order for allowing the compound to enter into the cells and then treated with 40ng/well of anti-Fas antibody(apoptosis was induced 2 hrs after antibody was treated and the incubation was continued overnight). The control was not treated with Fas antibody. […] After coloring, 100-200µℓ of the supernatant was transferred to a 96-well plate and the absorbance at 490 nm was read with ELISA plate reader. For the blank, XTT solution was added to the well containing the medium only. Plotting was determined by comparing with the control group (100% when Fas antibody was not treated).
(Tetrazolium assays rely on reduction of a dye to a coloured formazan, in cell work by metabolically active cells.)

“And” between values parts separate entries of the source, which are not always exact repeats. Equal entries are not always repeated. Where two headings read alike, the source gives them in different places.

In the case of `CC(C)[C@H](NC(=O)CCc1ccccc1)C1=NOC(Cc2ccccc2)(C(=O)N[C@@H](CC(=O)O)C(=O)COC(=O)c2c(Cl)cccc2Cl)C1` (mixture of isomers) [Compound 32, (3S)-3-{3-[2-methyl-(1S)-1-(phenylethylcarbonylamino)-propyl]-5-phenylmethyl-4,5-dihydro-isoxazole-5-carbonylamino}-4-keto-5-(2,6-dichlorobenzoyloxy)-pentanoic acid], the EC50 in the series on Jurkat T cell (Homo sapiens) lay in the range of 1 to 10 µM. Also, the figures for the kinact/KI on caspase-1 and at caspase-3 were 130000 M⁻¹ s⁻¹ and 114 M⁻¹ s⁻¹, respectively.
For `CC1(C(=O)N[C@@H](CC(=O)O)C(=O)COC(=O)c2c(Cl)cccc2Cl)CC([C@H](CCC(=O)O)NC(=O)CCC(=O)O)=NO1` (single isomer, unassigned) [Compound 72] the same measures were 1 to 10 µM, 30800 M⁻¹ s⁻¹ and 176000 M⁻¹ s⁻¹.
Taken in the same sequence, the figures for `CCCC1(C(=O)N[C@@H](CC(=O)O)C(=O)COC(=O)c2c(Cl)cccc2Cl)CC([C@@H](NC(=O)CCC(=O)O)C(C)C)=NO1` (single isomer, unassigned) [Compound 76] were 1 to 10 µM, 14000 M⁻¹ s⁻¹ and 197000 M⁻¹ s⁻¹.
Taken in the same sequence, the figures for `CCCCC1(C(=O)N[C@@H](CC(=O)O)C(=O)COC(=O)c2c(Cl)cccc2Cl)CC([C@@H](NC(=O)CCC(=O)O)C(C)C)=NO1` (single isomer, unassigned) [Compound 80] were 1 to 10 µM, 14900 M⁻¹ s⁻¹ and 1.14e+06 M⁻¹ s⁻¹.
Consider `CC(=O)N[C@@H](CC(=O)O)C(=O)N[C@@H](CCC(=O)O)C(=O)N[C@H](C(=O)N[C@H](C=O)CC(=O)O)C(C)C` [Ac-DEVD-CHO, reference compound], for which the viability ratio was 12.16% in the series on WI38 cells (Conc. 0.4 µM); 14.75% in the series with WI38 cells (Conc. 2 µM); 19.16% in the series on WI38 cells (Conc. 10 µM); 35.1% and 35.14% with WI38 cells (Conc. 50 µM, 50 µM).
Regarding `CC(C)[C@H](NC(=O)c1ccc2ccccc2c1)C1=NOC(COc2ccccc2)(C(=O)N[C@@H](CC(=O)O)C(=O)COc2ccc3ccccc3c2)C1` (stereo partly drawn) [Compound 25mp, (3S)-3-{3-[(1S)-1-(naphthalene-2-carbonylamino)-2-methyl-propyl]-5-phenoxymethyl-4,5-dihydro-isoxazole-5-carbonylamino}-4-keto-5-(2-naphthyloxy)-pent anoic acid], in the series on Jurkat T cell (Homo sapiens), the EC50 was 1 to 10 µM. The inhibition constant (Ki) (commonly a measure of affinity in units of concentration, obtained from inhibition or displacement) at caspase-1 was determined as 0.0721 nM.
In the case of `CC(C)[C@H](NC(=O)c1ccc2ccccc2c1)C1=NOC(Cc2ccccc2)(C(=O)N[C@@H](CC(=O)O)C(=O)COC(=O)c2c(Cl)cccc2Cl)C1` (stereo partly drawn) [Compound 28, (3S)-3-{3-{(1S)-1-(naphthalene-2-carbonylamino)-2-methyl-propyl]-5-phenylmethyl-4,5-dihydro-isoxazole-5-carbonylamino}-4-keto-5-(2,6-dichlorobenzoyloxy)-pentanoic acid], the viability at 0.4 µM in the series with WI38 cells (Homo sapiens, WI-38, WI38 cells, Conc. 0.4 µM, read-out: viability ratio) was determined as 14.7%. Moreover, the viability at 2 µM in the series on WI38 cells (Homo sapiens, WI-38, WI38 cells, Conc. 2 µM, read-out: viability ratio) is 17.3%. For the same compound, the viability at 10 µM with WI38 cells (Homo sapiens, WI-38, WI38 cells, Conc. 10 µM, read-out: viability ratio) came out at 82.4%. In addition, in the series with WI38 cells (Homo sapiens, WI-38, WI38 cells, Conc. 50 µM, read-out: viability ratio), the viability at 50 µM came to 90%. Further, in the series on WI38 cells (Conc. 50 µM, listed as Comp 28, 50 µM), the viability ratio was found to be 90.39%.
With `CC(C)[C@H](NC(=O)c1ccc2ccccc2n1)C1=NOC(Cc2ccccc2)(C(=O)N[C@@H](CC(=O)O)C(=O)COC(=O)c2c(Cl)cccc2Cl)C1` (stereo partly drawn) [Compound 42mp, (3S)-3-{3-[2-methyl-(1S)-1-(quinoline-2-yl-carbonylamino)-propyl]-5-phenylmethyl-4,5-dihydro-isoxazole-5-carbonylamino}-4-keto-5-(2,6-dichlorobenzoyloxy)-pentanoic acid], in the series on Jurkat T cell (Homo sapiens), the EC50 was in the range of 1 to 10 µM. For the same compound, the kinact/KI worked out at 408000 M⁻¹ s⁻¹ at caspase-1 and 160 M⁻¹ s⁻¹ on caspase-3.
As for `CC(C)[C@H](NC(=O)c1ccc2ccccc2n1)C1=NOC(Cc2ccccc2)(C(=O)N[C@@H](CC(=O)O)C(=O)COc2ccccc2)C1` (stereo partly drawn) [Compound 43mp, (3S)-3-{3-[2-methyl-(1S)-1-(quinoline-2-yl-carbonylamino)-propyl]-5-phenylmethyl-4,5-dihydro-isoxazole-5-carbonylamino}-4-keto-5-phenoxy-pentanoic acid], the EC50 in the series with Jurkat T cell (Homo sapiens) fell in the range of 1 to 10 µM. Moreover, the Ki on caspase-1 is 4 nM.
For the compound `CC(C)[C@H](NC(=O)CCC(=O)O)C1=NOC(C)(C(=O)N[C@@H](CC(=O)O)C(=O)COC(=O)c2c(Cl)cccc2Cl)C1` (stereo partly drawn) [Compound 74, (3S)-3-{3-[2-methyl-(1S)-1-(succinoylamino)-propyl]-5-methyl-4,5-dihydro-isoxazole-5-carbonylamino}-4-keto-5-(2,6-dichlorobenzoyloxy)-pentanoic acid], the “Kobs/[I] for caspase-1” value on caspase-1 came out at 14500 M⁻¹ s⁻¹. For the same compound, the “Kobs/[I] for caspase-3” value on caspase-3 amounted to 40900 M⁻¹ s⁻¹.
In the case of `CC(C)[C@H](NC(=O)CCC(=O)O)C1=NOC(C)(C(=O)N[C@@H](CC(=O)O)C(=O)CN2CCCCC2)C1` (stereo partly drawn) [Compound 77, (3S)-3-{3-[2-methyl-(1S)-1-(succinoylamino)-propyl]-5-methyl-4,5-dihydro-isoxazole-5-carbonylamino}-4-keto-5-(N-piperidine)-pentanoic acid], in the series with Jurkat T cell (Homo sapiens), the EC50 was 1 to 10 µM. The Ki on caspase-1 worked out at 28900 nM.
Consider `CC(C)[C@H](NC(=O)CCC(=O)O)C1=NOC(Cc2ccccc2)(C(=O)N[C@@H](CC(=O)O)C(=O)COC(=O)c2c(Cl)cccc2Cl)C1` (stereo partly drawn) [Compound 86, (3S)-3-{3-[2-methyl-(1S)-1-(succinoylamino)-propyl]-5-phenylmethyl-4,5-dihydro-isoxazole-5-carbonylamino}-4-keto-5-(2,6-dichlorobenzoyloxy)-pentanoic acid], for which, at caspase-1, the “Kobs/[I] for caspase-1” value is 7560 M⁻¹ s⁻¹. The “Kobs/[I] for caspase-3” value on caspase-3 turned out to be 28000 M⁻¹ s⁻¹.
As for `COCC1(C(=O)N[C@@H](CC(=O)O)C(=O)COC(=O)c2c(Cl)cccc2Cl)CC([C@@H](NC(=O)CCC(=O)O)C(C)C)=NO1` (stereo partly drawn) [Compound 87, (3S)-3-{3-[2-methyl-(1S)-1-(succinoylamino)-propyl]-5-methoxymethyl-4,5-dihydro-isoxazole-5-carbonylamino}-4-keto-5-(2,6-dichlorobenzoyloxy)-pentanoic acid], on caspase-1, the “Kobs/[I] for caspase-1” value was determined as 3400 M⁻¹ s⁻¹. Moreover, the “Kobs/[I] for caspase-3” value at caspase-3 is 27400 M⁻¹ s⁻¹.
As to `CCCCCC1(C(=O)N[C@@H](CC(=O)O)C(=O)COC(=O)c2c(Cl)cccc2Cl)CC([C@@H](NC(=O)CCC(=O)O)C(C)C)=NO1` (stereo partly drawn) [Compound 90, (3S)-3-{3-[2-methyl-(1S)-1-(succinoylamino)-propyl]-5-n-pentyl-4,5-dihydro-isoxazole-5-carbonylamino}-4-keto-5-(2,6-dichlorobenzoyloxy)-pentanoic acid], the “Kobs/[I] for caspase-3” value on caspase-3 worked out at 80100 M⁻¹ s⁻¹.
Take `CC(C)[C@H](NC(=O)[C@H](CCC(=O)O)NC(=O)[C@H](CC(=O)O)NC(=O)OCc1ccccc1)C(=O)N[C@@H](CC(=O)O)C(=O)CCl` [z-DEVD-cmk, reference compound]: the viability ratio with WI38 cells (Conc. 0.4 µM) was 15.13%; with WI38 cells (Conc. 2 µM), 16.27%; in the series with WI38 cells (Conc. 10 µM), 27.38%; with WI38 cells (Conc. 50 µM, 50 µM), 47.3% and 47.32%.
Consider “(3S)-3-{3-[(1S)-1-(quinoline-2-yl-carbonylamino)-2-methyl-propyl]-5-phenox ymethyl-4,5-dihydro-isoxazole-5-carbonylamino}-4-keto-pentanoic acid [Compound 22mp]”, for which the EC50 with Jurkat T cell is 1 to 10 µM. The inhibition constant Ki at caspase-1 was determined as 0.125 nM.
